Source: the Kinase Knowledgebase extract (Sharma et al. 2016)

target: CDK2 (UniProt P24941); assay: Enzyme Assay

Row | SMILES | IC50
1 | CC(C)N1CCN(C(=O)COc2ccc(-c3n[nH]c4c3C(=O)c3c(NC(=O)NN5CCOCC5)cccc3-4)cc2)CC1 | < 100 nM
2 | CCOC(=O)COc1ccc(-c2[nH]nc3c2C(=O)c2c(NC(=O)NN4CCOCC4)cccc2-3)cc1 | < 100 nM
3 | CCN(CCO)S(=O)(=O)c1cc(Cl)c(-n2nc(C(C)C)c3c(=O)[nH]c(Cc4ccc(OCCN5CCOCC5)cc4)nc32)c(Cl)c1 | < 100 nM
4 | Cc1cc(OCCN2CCCC2)ccc1-c1[nH]nc2c1C(=O)c1c(NC(=O)NN3CCN(C)CC3)cccc1-2 | < 100 nM
5 | Cc1cc(-c2[nH]nc3c2C(=O)c2c(NC(=O)NN4CCN(C)CC4)cccc2-3)ccc1OCCN1CCCC1 | < 100 nM
6 | Cc1cc(-c2[nH]nc3c2C(=O)c2c(NC(=O)NN4CCOCC4)cccc2-3)ccc1OCCN1CCCC1 | < 100 nM
7 | CC(C)c1nn(-c2c(Cl)cccc2Cl)c2nc(Cc3ccc(OCCOP(=O)(O)O)cc3)[nH]c(=O)c12 | < 100 nM
8 | CCOC(=O)CN1CCN(NC(=O)Nc2cccc3c2C(=O)c2c-3n[nH]c2-c2ccc(OCCN3CCCC3)cc2)CC1 | < 100 nM
9 | CN1CCN(NC(=O)Nc2cccc3c2C(=O)c2c(-c4ccc(OCCN5CCCC5)c(F)c4)n[nH]c2-3)CC1 | < 100 nM
10 | CC(C)N1CCN(C(=O)COc2ccc(-c3[nH]nc4c3C(=O)c3c(NC(=O)NN5CCOCC5)cccc3-4)cc2)CC1 | < 100 nM
11 | CC(C)c1nn(-c2c(Cl)cccc2Cl)c2nc(Cc3ccc(OCC(C)(C)O)cc3)[nH]c(=O)c12 | < 100 nM
12 | CC(C)c1nn(-c2c(Cl)cccc2Cl)c2nc(Cc3ccc(OCCOC(=O)[C@@H](N)C(C)C)cc3)[nH]c(=O)c12 | < 100 nM
13 | O=C(Nc1cccc2c1C(=O)c1c-2n[nH]c1-c1ccc(OP(=O)(O)O)cc1)NN1CCOCC1 | < 100 nM
14 | CC(C)C(N)C(=O)OCCN1CCN(NC(=O)Nc2cccc3c2C(=O)c2c-3n[nH]c2-c2ccc(OCCN3CCCC3)cc2)CC1 (configuration not stated) | < 100 nM
15 | CN1CCN(NC(=O)Nc2cccc3c2C(=O)c2c-3n[nH]c2-c2ccc(OCC(=O)N3CCCC3)cc2)CC1 | < 100 nM
16 | O=C(Nc1cccc2c1C(=O)c1c(-c3ccc(CN4CCCC4)cc3)n[nH]c1-2)NN1CCOCC1 | < 100 nM
17 | O=C(Nc1cccc2c1C(=O)c1c(-c3ccc(OCc4nnn[nH]4)cc3)n[nH]c1-2)NN1CCOCC1 | < 100 nM
18 | CCN1CCN(S(=O)(=O)c2cc(Cl)c(-n3nc(C(C)C)c4c(=O)[nH]c(Cc5ccc(OCCN6CCOCC6)cc5)nc43)c(Cl)c2)CC1 | < 1000 nM
19 | O=C(Nc1cccc2c1C(=O)c1c(-c3ccc(CN4CCOCC4)cc3)n[nH]c1-2)NN1CCOCC1 | < 100 nM

Row | SMILES | IC50
20 | CC(C)c1nn(-c2c(Cl)cccc2Cl)c2nc(Cc3ccc(OCCN4CCOCC4)c(O)c3)[nH]c(=O)c12 | < 100 nM
21 | CC(C)c1nn(-c2c(Cl)cccc2Cl)c2nc(Cc3ccc(CN4CCCC4)c(O)c3)[nH]c(=O)c12 | < 100 nM
22 | CN1CCN(NC(=O)Nc2cccc3c2C(=O)c2c-3n[nH]c2-c2ccc(OCCN3CC[C@H](O)C3)cc2)CC1 | < 100 nM
23 | CC(C)c1nn(-c2c(Cl)cccc2Cl)c2nc(Cc3ccc(CN4CCN(C(C)C)CC4)c(O)c3)[nH]c(=O)c12 | < 100 nM
24 | O=C(Nc1cccc2c1C(=O)c1c(-c3ccc(CN4CCC[C@H]4CO)cc3)n[nH]c1-2)NN1CCOCC1 | < 100 nM
25 | CN1CCN(Cc2ccc(-c3n[nH]c4c3C(=O)c3c(NC(=O)NN5CCOCC5)cccc3-4)cc2)CC1 | < 100 nM
26 | CC(C)c1nn(-c2c(Cl)cc(Cl)cc2Cl)c2nc(Cc3ccc(OCCO)cc3)[nH]c(=O)c12 | < 100 nM
27 | O=C(Nc1cccc2c1C(=O)c1c(-c3ccc(OCCN4CCOCC4)cc3Cl)n[nH]c1-2)NN1CCOCC1 | < 100 nM
28 | O=C(Nc1cccc2c1C(=O)c1c(-c3ccc(CN4CCN(c5ccccn5)CC4)cc3)n[nH]c1-2)NN1CCOCC1 | < 100 nM
29 | O=C(Nc1cccc2c1C(=O)c1c(-c3ccc(CN4CCC(O)CC4)cc3)n[nH]c1-2)NN1CCOCC1 | < 100 nM
30 | O=C(Nc1cccc2c1C(=O)c1c(-c3ccc(OCCN4CCOCC4)c(F)c3)n[nH]c1-2)NN1CCOCC1 | < 100 nM
31 | O=C(Nc1cccc2c1C(=O)c1c(-c3ccc(CN(CCO)CCO)cc3)n[nH]c1-2)NN1CCOCC1 | < 100 nM
32 | CN1CCN(NC(=O)Nc2cccc3c2C(=O)c2c-3n[nH]c2-c2ccc(OCCn3cccn3)cc2)CC1 | < 100 nM
33 | CC(C)c1nn(-c2c(Cl)cccc2Cl)c2nc(Cc3ccc(NS(=O)(=O)CCCN4CCOCC4)cc3)[nH]c(=O)c12 | < 100 nM
34 | CC(C)c1nn(-c2c(Cl)cc(Cl)cc2Cl)c2nc(Cc3ccc(CN4CCCC4)n3C)[nH]c(=O)c12 | < 100 nM
35 | CC(C)c1nn(-c2c(Cl)cc(Cl)cc2Cl)c2nc(Cc3ccc(CN4CCN(C(C)C)CC4)n3C)[nH]c(=O)c12 | < 100 nM
36 | CC(C)OC(=O)CN1CCN(NC(=O)Nc2cccc3c2C(=O)c2c-3n[nH]c2-c2ccc(OCCN3CCCC3)cc2)CC1 | < 100 nM
37 | CC(C)c1nn(-c2c(Cl)cc(Cl)cc2Cl)c2nc(Cc3ccc(NS(=O)(=O)CCCN4CCCC4)cc3)[nH]c(=O)c12 | < 100 nM

The remaining lines, values ahead:

Row | IC50 | SMILES
38 | < 10 nM | CC(C)N1CCN(S(=O)(=O)c2ccc(-c3[nH]nc4c3C(=O)c3c(NC(=O)NN5CCOCC5)cccc3-4)cc2)CC1
39 | < 100 nM | Cc1cc(OCCN2CCOCC2)ccc1-c1[nH]nc2c1C(=O)c1c(NC(=O)NN3CCN(C)CC3)cccc1-2
40 | < 100 nM | Cc1cc(OCCN2CCCCC2)ccc1-c1[nH]nc2c1C(=O)c1c(NC(=O)NN3CCN(C)CC3)cccc1-2
41 | < 100 nM | CC(C)N1CCN(CCOc2ccc(-c3n[nH]c4c3C(=O)c3c(NC(=O)NN5CCOCC5)cccc3-4)c(F)c2)CC1
42 | < 10 nM | O=C(Nc1cccc2c1C(=O)c1c(-c3ccc(CNC(CO)CO)cc3)n[nH]c1-2)NN1CCOCC1
43 | < 100 nM | Cc1noc(COc2ccc(-c3[nH]nc4c3C(=O)c3c(NC(=O)NN5CCOCC5)cccc3-4)cc2)n1
44 | < 100 nM | CN1CCN(NC(=O)Nc2cccc3c2C(=O)c2c-3n[nH]c2-c2ccc(O)cc2)CC1
45 | < 100 nM | O=C(Nc1cccc2c1C(=O)c1c-2n[nH]c1-c1ccc(O)c(CN2CCOCC2)c1)NN1CCOCC1
46 | < 100 nM | O=C(Nc1cccc2c1C(=O)c1c-2n[nH]c1-c1ccc(OCC(=O)N2CCCC2)cc1)NN1CCOCC1
47 | < 100 nM | CC(C)c1nn(-c2c(Cl)cc(Cl)cc2Cl)c2nc(Cc3ccc(NS(=O)(=O)CCCN4CCN(C(C)C)CC4)cc3)[nH]c(=O)c12
48 | < 100 nM | CC(C)c1nn(-c2c(Cl)cc(Cl)cc2Cl)c2nc(Cc3ccc(OCC(C)(C)O)cc3)[nH]c(=O)c12
49 | < 10 nM | CC(C)c1nn(-c2c(Cl)cccc2Cl)c2nc(Cc3ccc(OCCN4CCOCC4)cc3)[nH]c(=O)c12
50 | < 10 nM | COCCN1CCN(Cc2ccc(-c3[nH]nc4c3C(=O)c3c(NC(=O)NN5CCOCC5)cccc3-4)cc2)CC1
51 | < 10 nM | CC(C)c1nn(-c2c(Cl)cc(Cl)cc2Cl)c2nc(Cc3ccc(CNC(CO)CO)n3C)[nH]c(=O)c12
52 | < 10 nM | CC(C)c1nn(-c2c(Cl)cc(Cl)cc2Cl)c2nc(Cc3ccc(OCCN4CCN(C(C)C)CC4)cc3)[nH]c(=O)c12
53 | < 10 nM | CC(C)c1nn(-c2c(Cl)cccc2Cl)c2nc(Cc3ccc(O)cc3)[nH]c(=O)c12
54 | < 10 nM | Cc1cc(OCCN2CCCC2)ccc1-c1[nH]nc2c1C(=O)c1c(NC(=O)NN3CCOCC3)cccc1-2
55 | < 10 nM | CC(C)N1CCN(CCCOc2ccc(-c3[nH]nc4c3C(=O)c3c(NC(=O)NN5CCOCC5)cccc3-4)cc2)CC1
56 | < 10 nM | Cc1cc(-c2[nH]nc3c2C(=O)c2c(NC(=O)NN4CCOCC4)cccc2-3)ccc1OCCN1CCN(C(C)C)CC1
57 | < 10 nM | COc1ccc(Cc2nc3c(c(C(C)C)nn3-c3c(Cl)cccc3Cl)c(=O)[nH]2)cc1
